Data published in PubChem BioAssay (NCI).
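A five-concentration, 48-hour dose response in 96-well plates underlies each endpoint, interpolated linearly between surrounding concentrations. At the GI50, growth is halved. Definition used: TGI = concentration required for complete inhibition of growth.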

Legend:
Test in all cases: DTP human tumour cell line panel, 48 h
HCT-15 colon = tested on: HCT-15 colon
COLO 205 colon = tested on: COLO 205 colon
SNB-19 CNS = tested on: SNB-19 CNS
SW-620 colon = tested on: SW-620 colon
A549 NSCLC = tested on: A549 NSCLC
UO-31 renal = tested on: UO-31 renal
IGROV1 ovarian = tested on: IGROV1 ovarian
SF-295 CNS = tested on: SF-295 CNS
HT29 colon = tested on: HT29 colon
T-47D breast = tested on: T-47D breast

| SMILES | TGI (HCT-15 colon) [µM] | TGI (COLO 205 colon) [µM] | TGI (SNB-19 CNS) [µM] | TGI (SW-620 colon) [µM] | TGI (A549 NSCLC) [µM] | TGI (UO-31 renal) [µM] | TGI (IGROV1 ovarian) [µM] | TGI (SF-295 CNS) [µM] | TGI (HT29 colon) [µM] | TGI (T-47D breast) [µM] | GI50 (HCT-15 colon) [µM] | GI50 (COLO 205 colon) [µM] | GI50 (SNB-19 CNS) [µM] | GI50 (SW-620 colon) [µM] | GI50 (A549 NSCLC) [µM] | GI50 (UO-31 renal) [µM] | GI50 (IGROV1 ovarian) [µM] | GI50 (SF-295 CNS) [µM] | GI50 (HT29 colon) [µM] | GI50 (T-47D breast) [µM] |
| --- | --- | --- | --- | --- | --- | --- | --- | --- | --- | --- | --- | --- | --- | --- | --- | --- | --- | --- | --- | --- |
| COc1ccc(N2C(=O)C(=O)N(c3ccccc3[N+](=O)[O-])C2=S)cc1 | 40.5 | 44.4 | > 100 | > 100 | > 100 | > 100 | > 100 | > 100 | > 100 | 74.4 | – | – | – | – | – | – | – | – | – | – |
| CN(C)CCCNC(=O)c1cc2[nH]c3c(cnc4ccc([N+](=O)[O-])cc43)c(=O)c2n1C | 31.8 | 30.1 | 33.6 | 34.5 | 32.1 | 32.1 | 27.7 | 51.4 | 18.6 | 39.2 | 15.2 | 16.5 | 17.7 | 17.4 | 17.9 | 17 | 12.5 | 26.9 | 5.93 | 19.3 |
| COC(=O)CCC1=CCC2(SC)C(=O)Nc3cccc1c32 (stereo not given) | > 100 | > 100 | > 100 | > 100 | > 100 | > 100 | > 100 | > 100 | > 100 | > 100 | – | – | – | – | – | – | – | – | – | – |
| Nc1ccc(-c2nc3cc(F)ccc3s2)cc1Cl | > 100 | > 100 | > 100 | > 100 | > 100 | > 100 | 42.9 | > 72.3 | > 100 | > 70.1 | – | – | – | – | – | – | – | – | – | – |
| CCCn1c2ccccc2c2ccc3c(c21)C(=O)C=CC3=O | 4.7 | 5.17 | > 10 | 3.27 | > 10 | > 10 | > 10 | > 10 | > 10 | 5.44 | – | – | – | – | – | – | – | – | – | – |
| C[N+](CCCl)(CCCl)Cc1cccc2cccc([N+](=O)[O-])c12 | > 100 | > 100 | > 100 | > 100 | > 100 | > 100 | > 100 | > 100 | > 100 | > 100 | – | – | – | – | – | – | – | – | – | – |
| O=C1NC(NNc2ccccc2)=N/C1=C\c1ccccc1O | > 100 | > 100 | > 100 | > 100 | > 100 | > 100 | > 100 | > 100 | > 100 | > 100 | – | – | – | – | – | – | – | – | – | – |
| CCCCCCCCCC1(N=[N+]=[N-])C(=O)c2ccccc2N(C)C1=O (stereo not given) | > 100 | > 100 | > 100 | > 100 | 95.1 | > 100 | 60.7 | > 100 | > 100 | 9.17 | – | – | – | – | – | – | – | – | – | – |
| C=C(CCC/C(C)=C/C=C/[C@]1(C)CCCc2ccoc21)CC(=O)O | > 100 | > 100 | > 100 | > 100 | > 100 | > 100 | > 100 | > 100 | > 100 | > 100 | – | – | – | – | – | – | – | – | – | – |
| CC(=O)Nc1ccc(N2C(=O)/C(=C\c3cccc(Oc4ccccc4)c3)S(=O)(=O)C2c2ccccc2)cc1 (stereo not given) | > 100 | > 100 | > 100 | > 100 | > 100 | > 100 | > 100 | > 100 | > 100 | > 100 | – | – | – | – | – | – | – | – | – | – |
| O=C(O)CC1NC(/C(=C/c2ccccc2)NC(=O)c2ccccc2)OC1=O (stereo not given) | > 100 | 40.6 | 67.6 | 42 | > 100 | 59 | > 100 | > 100 | > 100 | > 100 | – | – | – | – | – | – | – | – | – | – |
| CC1(C)CC(=O)c2[nH]c3ccccc3c2CC(=O)NCCc2cn1cn2 | > 100 | > 100 | > 100 | > 100 | > 100 | > 100 | > 100 | > 100 | > 100 | > 100 | – | – | – | – | – | – | – | – | – | – |
| Cc1cc2c(cc1Cl)SC(NS(=O)(=O)c1ccc(Cl)cc1)=NS2(=O)=O | > 100 | > 100 | > 100 | > 100 | > 100 | > 100 | > 100 | 88.3 | > 100 | > 100 | – | – | – | – | – | – | – | – | – | – |
| CC(C)(C)[Si](C)(C)OCC1OC(n2ccc(N)nc2=O)C(O[Si](C)(C)C(C)(C)C)C1O[Si](C)(C)C(C)(C)C (stereo not given) | 5.25 | 9.84 | 11.4 | 2.93 | 11.6 | 3.07 | 3.94 | 3.75 | 3.02 | 11.6 | – | – | – | – | – | – | – | – | – | – |
| O=C1NC(=O)C(c2c[nH]c3ccccc23)=C1c1cnc[nH]1 | > 100 | > 100 | > 100 | > 100 | > 100 | > 100 | > 100 | > 100 | > 100 | > 100 | – | – | – | – | – | – | – | – | – | – |
| COCC1OC(Sc2ccccc2)C(O)C(OC)C1OC (stereo not given) | > 100 | > 100 | > 100 | > 100 | > 100 | > 100 | > 100 | > 100 | > 100 | > 100 | – | – | – | – | – | – | – | – | – | – |
| CC(C)(Cl)C(Br)CCC(C)(Cl)C(Br)CBr (stereo not given) | 61.9 | 33.8 | > 100 | 95.5 | > 100 | > 100 | 65.4 | 46 | 46.8 | 81.3 | – | – | – | – | – | – | – | – | – | – |
